Results: US20050165047A1, “Crystalline fumarate salts of 1-azabicyclo[2.2.2]oct substituted furo[2,3-c]pyridinyl carboxamide and compositions and preparations thereof” (Pfizer Inc, priority 2002, published 2005)

Experiment: Moisture sorption by DMSG on a controlled atmosphere microbalance
Assay type: physicochemical
Conditions: 25° C.
Experimental: The sorption of water by the solid lattice at a given relative humidity (RH) was measured by DMSG on a controlled atmosphere microbalance. Scans were carried out at 25° C. from 36% to 0% RH then ramped to 90% RH, and back down to 0% RH with a step size of 3% RH. A sample size of 8 to 14 mg was used. At each step, the balance was considered equilibrated when the mass change was less than 0.01 mg for five consecutive scans. There were 120 seconds between each scan.
Table 3 provides the moisture sorption data at 25° C. for Crystal Forms Ia and Ib of N-[1-azabicyclo[2.2.2]oct-3-yl]furo[2,3-c]pyridine-5-carboxamide.

Compound: O=C(N[C@H]1CN2CCC1CC2)c1cc2ccoc2cn1 [Crystal Form Ia, N-[(3R)-1-azabicyclo[2.2.2]oct-3-yl]furo[2,3-c]pyridine-5-carboxamide]
- % dMass (RH 0%, 0-90% RH): 0.006227%
- % dMass (RH 0%, 36-0% RH): 0.008896%
- % dMass (RH 0.1%, 36-0% RH): 0.01245%
- % dMass (RH 0.36%, 36-0% RH): 0.01156%
- % dMass (RH 1.3%, 0-90% RH): 0.01512%
- % dMass (RH 1.6%, 36-0% RH): 0.02224%
- % dMass (RH 4.3%, 0-90% RH): 0.0258%
- % dMass (RH 4.74%, 36-0% RH): 0.0338%
- % dMass (RH 7.1%, 0-90% RH): 0.03736%
- % dMass (RH 7.98%, 36-0% RH): 0.0427%
- % dMass (RH 10.1%, 0-90% RH): 0.04448%
- % dMass (RH 10.8%, 36-0% RH): 0.04893%
- % dMass (RH 13.14%, 0-90% RH): 0.05249%
- % dMass (RH 13.96%, 36-0% RH): 0.05515%
- % dMass (RH 16.18%, 0-90% RH): 0.05782%
- % dMass (RH 17.1%, 36-0% RH): 0.06227%
- % dMass (RH 19.28%, 0-90% RH): 0.06227%
- % dMass (RH 19.94%, 36-0% RH): 0.07028%
- % dMass (RH 22.56%, 0-90% RH): 0.07295%
- % dMass (RH 23.18%, 36-0% RH): 0.07739%
- % dMass (RH 25.72%, 0-90% RH): 0.07828%
- % dMass (RH 28.68%, 0-90% RH): 0.08362%
- % dMass (RH 31.96%, 0-90% RH): 0.09341%
- % dMass (RH 35.18%, 0-90% RH): 0.1005%
- % dMass (RH 38.16%, 0-90% RH): 0.1076%
- % dMass (RH 41.24%, 0-90% RH): 0.1139%
- % dMass (RH 44.36%, 0-90% RH): 0.1165%
- % dMass (RH 47.56%, 0-90% RH): 0.1237%
- % dMass (RH 50.7%, 0-90% RH): 0.1334%
- % dMass (RH 53.86%, 0-90% RH): 0.1423%
- % dMass (RH 56.98%, 0-90% RH): 0.153%
- % dMass (RH 60.24%, 0-90% RH): 0.1646%
- % dMass (RH 63.9%, 0-90% RH): 0.1841%
- % dMass (RH 66.22%, 90-0% RH): 0.2046%
- % dMass (RH 66.66%, 0-90% RH): 0.2028%
- % dMass (RH 69.18%, 90-0% RH): 0.234%
- % dMass (RH 69.48%, 0-90% RH): 0.2251%
- % dMass (RH 72.34%, 90-0% RH): 0.3194%
- % dMass (RH 72.76%, 0-90% RH): 0.2562%
- % dMass (RH 75.26%, 90-0% RH): 0.3629%
- % dMass (RH 75.68%, 0-90% RH): 0.2936%
- % dMass (RH 77.96%, 90-0% RH): 0.4074%
- % dMass (RH 78.42%, 0-90% RH): 0.3371%
- % dMass (RH 80.84%, 90-0% RH): 0.4706%
- % dMass (RH 81.9%, 0-90% RH): 0.4163%
- % dMass (RH 83.48%, 90-0% RH): 0.5569%
- % dMass (RH 85.3%, 0-90% RH): 0.6218%
- % dMass (RH 85.94%, 90-0% RH): 0.693%
- % dMass (RH 88.38%, 0-90% RH): 0.9643%
- % dMass (RH 88.42%, 90-0% RH): 0.9723%
- hygroscopicity compared with Crystal Form Ib (above 74% relative humidity (RH)): less hygroscopic

Compound: O=C(N[C@H]1CN2CCC1CC2)c1cc2ccoc2cn1 [Crystal Form Ib, N-[(3R)-1-azabicyclo[2.2.2]oct-3-yl]furo[2,3-c]pyridine-5-carboxamide]
- % dMass (RH 0%, 36-0% RH): 0.1164%
- % dMass (RH 0.24%, 36-0% RH): 0.1225%
- % dMass (RH 2.62%, 0-90% RH): 0.1479%
- % dMass (RH 3.16%, 36-0% RH): 0.1628%
- % dMass (RH 5.84%, 0-90% RH): 0.1768%
- % dMass (RH 6.36%, 36-0% RH): 0.1899%
- % dMass (RH 8.98%, 0-90% RH): 0.2048%
- % dMass (RH 9.74%, 36-0% RH): 0.2197%
- % dMass (RH 12.2%, 0-90% RH): 0.2293%
- % dMass (RH 12.78%, 36-0% RH): 0.2451%
- % dMass (RH 15.34%, 0-90% RH): 0.2547%
- % dMass (RH 15.78%, 36-0% RH): 0.2678%
- % dMass (RH 18.46%, 0-90% RH): 0.281%
- % dMass (RH 18.8%, 36-0% RH): 0.2932%
- % dMass (RH 21.42%, 0-90% RH): 0.3037%
- % dMass (RH 21.88%, 36-0% RH): 0.3195%
- % dMass (RH 24.66%, 0-90% RH): 0.3335%
- % dMass (RH 25.1%, 36-0% RH): 0.3466%
- % dMass (RH 27.74%, 0-90% RH): 0.3606%
- % dMass (RH 28.16%, 36-0% RH): 0.3772%
- % dMass (RH 30.82%, 0-90% RH): 0.3921%
- % dMass (RH 33.92%, 0-90% RH): 0.4245%
- % dMass (RH 36.96%, 0-90% RH): 0.4586%
- % dMass (RH 39.9%, 0-90% RH): 0.491%
- % dMass (RH 43.18%, 0-90% RH): 0.5348%
- % dMass (RH 46.14%, 0-90% RH): 0.5768%
- % dMass (RH 49.16%, 0-90% RH): 0.6302%
- % dMass (RH 52.12%, 0-90% RH): 0.6871%
- % dMass (RH 55.1%, 0-90% RH): 0.7501%
- % dMass (RH 58.08%, 0-90% RH): 0.8219%
- % dMass (RH 61.08%, 0-90% RH): 0.9068%
- % dMass (RH 64.04%, 0-90% RH): 1.002%
- % dMass (RH 67.02%, 0-90% RH): 1.124%
- % dMass (RH 68.62%, 90-0% RH): 26.01%
- % dMass (RH 70%, 0-90% RH): 1.281%
- % dMass (RH 71.48%, 90-0% RH): 26.27%
- % dMass (RH 72.9%, 0-90% RH): 1.505%
- % dMass (RH 74.3%, 90-0% RH): 26.58%
- % dMass (RH 75.9%, 0-90% RH): 1.925%
- % dMass (RH 77.1%, 90-0% RH): 26.92%
- % dMass (RH 79.2%, 0-90% RH): 26.93%
- % dMass (RH 79.88%, 90-0% RH): 27.36%
- % dMass (RH 82%, 0-90% RH): 27.4%
- % dMass (RH 82.5%, 90-0% RH): 28%
- % dMass (RH 85.04%, 0-90% RH): 28.18%
- % dMass (RH 85.12%, 90-0% RH): 30.2%
- % dMass (RH 87.82%, 0-90% RH): 30.29%
- % dMass (RH 87.9%, 90-0% RH): 32.21%
- % dMass (RH 90.7%, 0-90% RH): 38.78%
- % dMass (RH 90.7%, 90-0% RH): 38.8%
